Like-named read-outs stand apart in the source and are kept apart here.
Assays:
SW1573 = details: Canon et al., Nature 575:217-223 (2019); cited from earlier work
AsPC-1 (K-Ras G12D) = assay: Potency assay: pERK; format: cell-based; details: Homo sapiens
Source text: The purpose of this assay was to measure the ability of test compounds to inhibit K-Ras in cells. Activated K-Ras induces increased phosphorylation of ERK at Threonine 202 and Tyrosine 204 (pERK). This procedure measures a decrease in cellular pERK in response to test compounds. The procedure described below in NCI-H358 cells is applicable to K-Ras G12C.
Note: This protocol may be executed substituting other cell lines to characterize inhibitors of other RAS variants, including, for example, AsPC-1 (K-Ras G12D), Capan-1 (K-Ras G12V), or NCI-H1355 (K-Ras G13C).
NCI-H358 cells were grown and maintained using media and procedures recommended by the ATCC. On the day prior to compound addition, cells were plated in 384-well cell culture plates (40 μl/well) and grown overnight in a 37° C., 5% CO2 incubator. Test compounds were prepared in 10, 3-fold dilutions in DMSO, with a high concentration of 10 mM. On the day of assay, 40 nL of test compound was added to each well of cell culture plate using an Echo550 liquid handler (LabCyte®). Concentrations of test compound were tested in duplicate. After compound addition, cells were incubated 4 hours at 37° C., 5% CO2. Following incubation, culture medium was removed and cells were washed once with phosphate buffered saline.
In some experiments, cellular pERK level was determined using the AlphaLISA SureFire Ultra p-ERK1/2 Assay Kit (PerkinElmer). Cells were lysed in 25 μL lysis buffer, with shaking at 600 RPM at room temperature. Lysate (10 μL) was transferred to a 384-well Opti-plate (PerkinElmer) and 5 μL acceptor mix was added. […] Signal was read on an Envision plate reader (PerkinElmer) using standard AlphaLISA settings. […] Signal was plotted vs. the decadal logarithm of compound concentration, and IC50 was determined by fitting a 4-parameter sigmoidal concentration response model.
In other experiments, cellular pERK was determined by In-Cell Western. […] Signal was plotted vs. the decadal logarithm of compound concentration, and IC50 was determined by fitting a 4-parameter sigmoidal concentration response model.

[1] = ASPC1, read-out: IC50 in the pERK potency assay

SMILES	IC50 (AsPC-1 (K-Ras G12D); [1])	other results
C=CC(=O)N1CCN(c2nc(=O)n(-c3c(C)ccnc3C(C)C)c3nc(-c4c(O)cccc4F)c(F)cc23)[C@@H](C)C1 [AMG510]	–	sensitivity of cell line to RAS inhibitor (SW1573): insensitive
CCn1c(-c2cccnc2[C@H](C)OC)c2c3cc(ccc31)-c1cc(cc(C(F)F)c1)C[C@H](NC(=O)[C@H](C(C)C)N1CC[C@]3(CCN(C(=O)[C@@H]4N[C@@H]4C4CC4)C3)C1)C(=O)N1CCC[C@H](N1)C(=O)OCC(C)(C)C2 [Example A17]	> 8 µM	–
CCn1c(-c2cccnc2[C@H](C)OC)c2c3cc(ccc31)-c1csc(n1)C[C@H](NC(=O)[C@H](C1CCCC1)N1CC[C@]3(CCN(C(=O)[C@@]4(C)CN4)C3)C1)C(=O)N1CCC[C@H](N1)C(=O)OCC(C)(C)C2 [Example A5]	> 8 µM	–
CCn1c(-c2cccnc2[C@H](C)OC)c2c3cc(ccc31)-c1cc(cc(C(F)F)c1)C[C@H](NC(=O)[C@H](C1CCCC1)N1CC[C@]3(CCN(C(=O)[C@@H]4N[C@@H]4C4CC4)C3)C1)C(=O)N1CCC[C@H](N1)C(=O)OCC(C)(C)C2 [Example A18]	–	IC50 (AsPC-1 (K-Ras G12D); ASPC1, AsPC-1 (K-Ras G12D) cells, read-out: IC50 in the pERK potency assay): > 8 µM
